Laboratory results: patent EP0308983A2, “NMR imaging with Mn(II) coordination compositions” (priority 1987, dated 1989)
Where “and” joins values, the source holds several entries; their conditions need not be identical. Equal entries are not always repeated. Where two headings read alike, the source gives them in different places.

What was measured:
[1] = Procedure: Three buffers were tested for suitability.
One part of the solution of the title compound, synthesized according to Example 35, was added to one part of a US National Bureau of Standard buffer solution for pH 4.0 (American Scientific Products; Phthalate reference buffer).

[2] = Paramagnetic relaxation properties in water at 10 MHz (0.15T), RADX spin analyzer; type: physicochemical; details: 10 MHz (0.15T)
Procedure: The paramagnetic relaxation properties of [manganese(II)·(H₂O)₂·(L-alanine)₂]⁺²(Cl₂)⁻² in water were measured at 10 MHz (0.15T) with a spin analyzer (RADX; Houston, TX) at 37°C. After thermal equilibrium, the spin-lattice (T₁) and spin-spin (T₂) relaxation values were measured in triplicate.
The paramagnetic relaxation of the title compound in water was measured at 10 MHz (0.15T) with a spin analyzer (RADX; Houston, TX). After thermal equilibrium, the spin-lattice (T₁) and spin-spin (T₂) relaxation values were measured.
Relaxivity was measured at 10 MHz (0.15T) as described in Example 10.
The relaxivity of the title compound was performed at 0.15 T (10 MHz) with a RADX Spin Analyzer (Houston, TX) at 37°C.

[3] = Dose needed to lower blood or plasma T₁ to 200 msec at 0.15 T
[4] = test system: test population of animals; details: for LD₅₀: Table A, species and unit not given; for Safety Factor: in vivo
[5] = test system: New Zealand white rabbit
Procedure: This solution was infused into a New Zealand white rabbit (3.1 kg wt.) at 0.065 mmole/kg/min for 5 min to achieve a total dose of […]. […] 15 Min after the infusion, the rabbit was sacrificed by lethal pentobarbitol injection, and the heart and liver were removed. Samples of these organs were tested for relaxation time at 0.15 T with a RADX spectrometer (Houston, TX).
At a lower dose level (0.10 mmole/kg), the effects of a rapid bolus injection (10 sec) or a slow infusion (over 5 min) were tested in two New Zealand white rabbits. 15 Min after the end of the infusion or injection, the animals were sacrificed and T₁ and T₂ values were measured on 4-16 individual samples of kidney, liver and heart tissue.

[6] = Stability of aqueous solutions after addition of a NaOH solution; details: ratio of OH⁻ to compound of 0.2; 161 mM (glycine) or 167 mM (gluconate) aqueous solution
Procedure: NMR contrast agents must be stable in solution under adverse conditions to be effective as pharmaceutical agents.
One ml of a 161 mM solution (initial pH 5) was placed in a test tube at 19°C. Sodium hydroxide (0.032 ml; 1 N) was added to the solution, giving a ratio of OH⁻ to compound of 0.2.
[Manganese(II)·(H₂O)₂·(gluconate)₂]⁺²(Cl₂)⁻² was prepared according to the procedure of Example 24. Deionized water was added to form a 167 mM clear solution. One mole equivalent of sodium hydroxide solution was added to five mole equivalents of the [manganese(II)·(H₂O)₂·(gluconate)₂]⁺²(Cl₂)⁻² solution, giving a ratio of OH⁻ to compound of 0.20.

[7] = Paramagnetic relaxation properties in human plasma at 37°C; type: physicochemical
[8] = test system: New Zealand white rabbits; details: rabbit, 1.5 T
Procedure: A General Electric Signa Magnetic Resonance Imaging System, operating at 1.5 T, and using a knee surface coil was used. New Zealand white rabbits (ca. 2.5 kg wt.) were used for imaging. […] With these instrument settings, an image could be acquired in about 1.3 min. Images of the rabbit kidney and liver were taken before injection and at 1, 3, 6, 8, 12, 16, 21, 26, 36, 46, and 56 min intervals after injection.
Schematic drawings of the images before injection and at intervals of 10 and 60 minutes are show in Fig. 1, 2 and 3, respectively.

[9] = test system: Rats; details: IV, standard conditions, 10 animals per dosage group
Text: The doses were 0.3, 0.5, and 0.8 mmole/kg. 10 Animals were used in each dosage group.

[10] = Plasma clearance: plasma T₁ and T₂ times after injection; type: in vivo; details: rabbit, 0.1 mmole/kg; for plasma T₁ / plasma T₂: 0.15 T
Procedure: A dose of 0.1 mmole/kg of GdDTPA was injected into a rabbit and blood samples were drawn at 10 min intervals for 50 min. The blood was centrifuged, and the plasma T₁ and T₂ times were measured at 0.15 T with a RADX PROTON SPIN ANALYZER (Houston, TX).

[11] = one part + one part carbonate pH reference buffer pH 10.0, the pH was 10.45
[12] = one part + one part phosphate pH reference buffer pH 7.0, the pH was 7.63
[13] = one part solution + one part phthalate reference buffer pH 4.0, the pH was 4.69
[14] = dose needed to lower T₁ from 1500 to 200 msec at 0.15 T, unit not given
[15] = 0.10 mmole/kg, bolus (10 sec), 15 min after, mean of samples
[16] = 0.10 mmole/kg, slow infusion (over 5 min), 15 min after, mean of samples
[17] = infusion 0.065 mmole/kg/min for 5 min, total dose 0.31 mole/kg, 15 min after infusion, 0.15 T
[18] = 37°C, repeat measurement 80 minutes later
[19] = 0.99 mM solution in water, 37°C, triplicate, mean +/- SD

Molecule: CC(=O)[O-].CC(=O)[O-].NCC(=O)O.NCC(=O)O.O.O.[Mn+2] [[Manganese(II)·(H₂O)₂·(Glycine)₂]Diacetate]
- appearance of the solution [1, 11]: remained clear
- change of relaxivity over a 12 hour time period [1, 11]: the relaxivity did not change
- appearance of the solution [1, 12]: remained clear
- change of relaxivity over a 12 hour time period [1, 12]: the relaxivity did not change
- appearance of the solution [1, 13]: remained clear
- change of relaxivity over a 12 hour time period [1, 13]: the relaxivity did not change
- Relaxivity (mM⁻¹sec⁻¹) Spin-Lattice ([2]; 1 mM solution in water): 8.40 mM⁻¹ s⁻¹
- Relaxivity (mM⁻¹sec⁻¹) Spin-Spin ([2]; 1 mM solution in water): 34.5 mM⁻¹ s⁻¹

Molecule: Manganese chloride [MnCl₂]
- Plasma Dose, T₁ = 200 [3, 14]: 0.01

Molecule: CC(=O)[O-].CC(=O)[O-].NCC(=O)O.NCC(=O)O.[Mn+2] [Mn(acetate)₂-bis-glycine]
- Plasma Dose, T₁ = 200 [3]: 0.10
- LD₅₀ [4]: 0.7
- Safety Factor [4]: 70

Molecule: NCC(=O)O.NCC(=O)O.O.O.[Cl-].[Cl-].[Mn+2] [[Manganese(II)·(H₂O)₂·(glycine)₂]⁺²(Cl₂)⁻²]
- Heart T₁, Bolus Injection, Mean [5, 15]: 156 ms
- Heart T₂, Bolus Injection, Mean [5, 15]: 40 ms
- Kidney T₁, Bolus Injection, Mean [5, 15]: 109 ms
- Kidney T₂, Bolus Injection, Mean [5, 15]: 40 ms
- Liver T₁, Bolus Injection, Mean [5, 15]: 51 ms
- Liver T₂, Bolus Injection, Mean [5, 15]: 18 ms
- Liver T₂, Infusion ([5]; 0.10 mmole/kg, slow infusion (over 5 min), 15 min after, individual tissue samples): 15 msec (2×) and 11 msec and 20 msec
- Heart T₁, Infusion, Mean [5, 16]: 179 ms
- Heart T₂, Infusion, Mean [5, 16]: 41 ms
- Kidney T₁, Infusion, Mean [5, 16]: 120 ms
- Kidney T₂, Infusion, Mean [5, 16]: 45 ms
- Liver T₁, Infusion, Mean [5, 16]: 39 ms
- Liver T₂, Infusion, Mean [5, 16]: 15 ms
- tolerance of the infusion ([5]; infusion 0.065 mmole/kg/min for 5 min, total dose 0.31 mole/kg): tolerated the infusion without outward signs of a pharmacologic or toxicologic effect
- heart T₁ [5, 17]: 45 ms
- heart T₂ [5, 17]: 21 ms
- liver T₁ [5, 17]: 19 ms
- liver T₂ [5, 17]: 10 ms
- stability after addition of a NaOH solution [6]: the solution remained clear with no discoloration or formation of a precipitate
- T₂ value ([7]; 94 µM final concentration, 37°C): 184 ± 12 ms
- T₁ value ([7]; 94 µM final concentration, 37°C, triplicate): 227 ± 3 ms
- R₁ ([7]; 37°C): 46.9 mM⁻¹ s⁻¹
- R₂ ([7]; 37°C): 57.8 mM⁻¹ s⁻¹
- T₁ changed by (repeat measurement) [7, 18]: 2%
- T₂ changed by (repeat measurement) [7, 18]: 2%
- T₂ relaxivity in plasma, fold greater than GdDTPA ([7]; versus GdDTPA): 12.0 fold
- T₁ relaxivity in plasma, fold greater than GdDTPA ([7]; versus gadolinium diethylenetriaminepentaacetic acid chelate (GdDTPA)): 9.8 fold
- liver parenchyma image intensity ([8]; image after one hour (60 min)): returned to normal intensity
- enhancement of the liver and parenchyma in the image ([8]; one min after injection, doses of 10 and 20 µmole/kg, Spin Echo TR = 300 msec, TE = 20 msec): over 100%
- spin-lattice (T₁) relaxation value [2, 19]: 109 ± 5 ms
- spin-spin (T₂) relaxation value [2, 19]: 26 ± 1 ms
- millimolar relaxivity for T₁ ([2]; in water, calculated from T₁ and concentration): 9.27 mM⁻¹ s⁻¹
- millimolar relaxivity for T₂ ([2]; in water, calculated from T₂ and concentration): 38.9 mM⁻¹ s⁻¹
- LD₅₀ [9]: 0.70 mmol/kg
- time for which the plasma T₁ was maintained below 250 [10]: 40 min
- plasma T₁ ([10]; 0 min (baseline)): 1600 ms
- plasma T₂ ([10]; 0 min (baseline)): 447 ms
- plasma T₁ ([10]; 10 min): 58 ms
- plasma T₂ ([10]; 10 min): 42 ms
- plasma T₁ ([10]; 20 min): 102 ms
- plasma T₂ ([10]; 20 min): 65 ms
- plasma T₁ ([10]; 30 min): 156 ms
- plasma T₂ ([10]; 30 min): 110 ms
- plasma T₁ ([10]; 40 min): 224 ms
- plasma T₂ ([10]; 40 min): 156 ms
- plasma T₁ ([10]; 50 min): 259 ms
- plasma T₂ ([10]; 50 min): 180 ms
- plasma T₁ ([10]; 60 min): 323 ms
- plasma T₂ ([10]; 60 min): 205 ms
- plasma T₁ ([10]; 70 min): 453 ms
- plasma T₂ ([10]; 70 min): 257 ms
- plasma T₁ ([10]; 80 min): 550 ms
- plasma T₂ ([10]; 80 min): 293 ms
- plasma T₁ ([10]; 90 min): 625 ms
- plasma T₂ ([10]; 90 min): 295 ms

Molecule: MnEDTA [reference compound]
- Plasma Dose, T₁ = 200 [3, 14]: 0.13
- LD₅₀ [4]: 5.0
- Safety Factor [4]: 38
